Source: patent US20220331458A1, “AGENTS FOR CLEAVING LABELS FROM BIOMOLECULES IN VIVO” (TAGWORKS PHARMACEUTICALS B.V., priority 2019, published 2022)
Marks after values point to notes of the source that are not given here. One block for each molecule: values may come before it.

Assays:
[1] = tested on: radiolabeled mAb-conjugates; test: In vitro Label release from radiolabeled mAb-TCO-chelate conjugates incubated with Cleaving Agents (SEC); details: 37°C, 15-24 h; for release (%) without Cleaving Agent: no Cleaving Agent
Experimental: Briefly, mAb solutions in PBS (4 mg/mL final concentration) were added with 15-20 eq of the NHS-derivative (dissolved at 10 mg/mL in DMSO) and the pH was adjusted to 9 with 1M sodium carbonate. The reaction mixtures were incubated at rt in the dark for 2 h then the products were purified by dialysis (20 kDa MW cut-off membranes) in chelex-treated 0.25M NH4OAc pH 5.5.
After 15-24 h incubation the mixtures were analyzed by SEC and the amount of released Label was quantified from the radioactivity elution profile.

[2] = Radioactivity in blood and tumors stated jointly for LS174T and BT-474 tumor-bearing mice (^111In-trastuzumab-1.8, 2.10); format: in vivo; details: ^111In-trastuzumab-1.8 followed by 2.10 48 h post-injection
Experimental: Female Balb/C mice were injected ca 1 million LS174T colon carcinoma cells or 10 million BT-474 breast cancer cells s.c. in the flank. […] Control groups were euthanized 72 h post-mAb injection.

[3] = ^111In biodistribution in normal mice after ^111In-trastuzumab-1.8 followed by 2.10 or vehicle; format: in vivo
[4] = TCO derivative conjugated to trastuzumab, ^111In, 50% mouse plasma in PBS
[5] = TCO derivative conjugated to trastuzumab, ^111In, PBS
[6] = Label release from TCO derivative 1.14 on CC49, ^89Zr, PBS
[7] = Label release from TCO derivative 1.15 on CC49, ^89Zr, PBS
[8] = Label release from TCO derivative 1.17 on CC49, ^89Zr, PBS
[9] = Label release from TCO derivative 1.17 on trastuzumab, ^89Zr, PBS
[10] = Label release from TCO derivative 1.2 on trastuzumab, ^111In, 50% mouse plasma in PBS
[11] = Label release from TCO derivative 1.2 on trastuzumab, ^111In, PBS
[12] = Label release from TCO derivative 1.4 on trastuzumab, ^111In, 50% mouse plasma in PBS
[13] = Label release from TCO derivative 1.8 on trastuzumab, ^111In, 50% mouse plasma in PBS
[14] = Label release from TCO derivative 1.8 on trastuzumab, ^111In, PBS
[15] = Label release from TCO derivative 1.4 on trastuzumab, ^111In, PBS
[16] = Label release from TCO derivative 1.8 on trastuzumab, ^177Lu, PBS
[17] = ^111In-trastuzumab-1.8 followed by 2.10 1 h post-mAb, euthanized 24 h later, SD, n = 4
[18] = ^111In-trastuzumab-1.8 followed by 2.10 24 h post-mAb, euthanized 24 h later, SD, n = 4

SMILES: C[C@]1(C(=O)ON2C(=O)CCC2=O)CC/C=C/[C@@H](OC(=O)NCCNC(=O)CCC(C(=O)O)N2CCN(CC(=O)O)CCN(CC(=O)O)CCN(CC(=O)O)CC2)CC1 (some centres unmarked) [Compound 1.4, NHS-TCO-C2-DOTAGA]
- release (%) without Cleaving Agent [1, 4]: 7.1%
- release (%) without Cleaving Agent [1, 5]: 6.8%

SMILES: CN(CC(=O)NCCOCCOCCOCCOCCNC(=O)CCC(C(=O)O)N1CCN(CC(=O)O)CCN(CC(=O)O)CCN(CC(=O)O)CC1)C(=O)O[C@@H]1/C=C/CC[C@](C)(C(=O)NCCOCCOCCOCCOCCOCCOCCOCCOCCOCCNC(=O)CCN2C(=O)C=CC2=O)CC1 (some centres unmarked) [Compound 1.8, Mal-PEG9-TCO-Sar-PEG4-DOTAGA]
- release (%) without Cleaving Agent [1, 4]: 6.6%
- release (%) without Cleaving Agent [1, 5]: 5.8%

SMILES: CC(=O)N(O)CCCCCNC(=O)CCC(=O)N(O)CCCCCNC(=O)CCC(=O)N(O)CCCCCNC(=O)CN(C)C(=O)O[C@@H]1/C=C/CC[C@](C)(C(=O)ON2C(=O)CCC2=O)CC1 [Compound 1.15, NHS-TCO-Sar-DFO]
- release (%) without Cleaving Agent ([1]; TCO derivative conjugated to CC49, ^89Zr, PBS): 7.3%

SMILES: Oc1cccnc1-c1nnc(-c2ncccc2O)nn1 [Compound 2.1, 2,2′-(1,2,4,5-Tetrazine-3,6-diyl)bis(pyridin-3-ol)]
- release (%) [1, 6]: 53.0%
- release (%) [1, 7]: 62.3%
- release (%) ([1]; Label release from TCO derivative 1.17 on CC49, ^89Zr, 50% mouse plasma in PBS): 81.3%
- release (%) [1, 8]: 88.0%
- release (%) [1, 9]: 88.9%
- release (%) ([1]; Label release from TCO derivative 1.2 on CC49, ^111In, PBS): 80.3%
- release (%) ([1]; Label release from TCO derivative 1.2 on cetuximab, ^111In, PBS): 85.7%
- release (%) ([1]; Label release from TCO derivative 1.2 on girentuximab, ^111In, PBS): 83.2%
- release (%) ([1]; Label release from TCO derivative 1.2 on rituximab, ^111In, PBS): 77.9%
- release (%) [1, 10]: 88.1%
- release (%) [1, 11]: 78.2%
- release (%) [1, 12]: 81.8^a %
- release (%) ([1]; Label release from TCO derivative 1.6 on trastuzumab, ^111In, 50% mouse plasma in PBS): 68.9%
- release (%) ([1]; Label release from TCO derivative 1.6 on trastuzumab, ^111In, PBS): 83.6%
- release (%) ([1]; Label release from TCO derivative 1.7 on trastuzumab, ^111In, 50% mouse plasma in PBS): 63.4%
- release (%) ([1]; Label release from TCO derivative 1.7 on trastuzumab, ^111In, PBS): 78.9%
- release (%) [1, 13]: 77.0%
- release (%) [1, 14]: 86.4%

SMILES: Oc1cnccc1-c1nnc(-c2ccncc2O)nn1 [Compound 2.2, 4,4′-(1,2,4,5-Tetrazine-3,6-diyl)bis(pyridin-3-ol)]
- release (%) [1, 6]: 60.3%
- release (%) [1, 7]: 65.8%
- release (%) [1, 8]: 87.2%
- release (%) [1, 9]: 61.4%
- release (%) [1, 15]: 69.5%
- release (%) [1, 14]: 81.6%

SMILES: CC(=O)Nc1cccnc1-c1nnc(-c2ncccc2NC(C)=O)nn1 [Compound 2.4, N,N′-(2,2′-(1,2,4,5-Tetrazine-3,6-diyl)bis(pyridine-3,2-diyl))diacetamide]
- release (%) [1, 13]: 54.5^a %

SMILES: O=C(CCCC(=O)Nc1cccnc1-c1nnc(-c2ncccc2NC(=O)CCCC(=O)NCCOCCOCCOCCOCCOCCOCCOCCOCCOCCO)nn1)NCCOCCOCCOCCOCCOCCOCCOCCOCCOCCO [Compound 2.8, N^1,N^1′-(2,2′-(1,2,4,5-Tetrazine-3,6-diyl)bis(pyridine-3,2-diyl))bis(N^5-(29-hydroxy-3,6,9,12,15,18,21,24,27-nonaoxanonacosyl)glutaramide)]
- release (%) [1, 13]: 60.6%
- release (%) [1, 14]: 79.9%

SMILES: O=C(O)CCCC(=O)Nc1cnccc1-c1nnc(-c2ccncc2NC(=O)CCCC(=O)O)nn1 [Compound 2.9, 5,5′-((4,4′-(1,2,4,5-Tetrazine-3,6-diyl)bis(pyridine-4,3-diyl))bis(azanediyl))bis(5-oxopentanoic acid)]
- release (%) [1, 13]: 67.0^a %

- radioactivity uptake in tumors versus control mice ([2]; euthanized 24 h later): somewhat lower
- radioactivity in blood ([2]; euthanized 24 h later (LS174T or BT-474)): 2-3 % ID/g
- reduction in blood radioactivity with respect to control mice ([3]; ^111In-trastuzumab-1.8 (ca. 0.5 mg/kg) followed by 2.10 (ca. 33.5 μmol/kg) either 1 h or 24 h post-mAb, 24 h after Cleaving Agent): ca. 70%
- ^111In biodistribution, Blood [3, 17]: 3.61 ± 0.44 % injected dose per gram
- ^111In biodistribution, Bone [3, 17]: 0.44 ± 0.03 % injected dose per gram
- ^111In biodistribution, Brain [3, 17]: 0.13 ± 0.08 % injected dose per gram
- ^111In biodistribution, Heart [3, 17]: 0.87 ± 0.10 % injected dose per gram
- ^111In biodistribution, Kidney L [3, 17]: 5.39 ± 0.84 % injected dose per gram
- ^111In biodistribution, Lg. intestine [3, 17]: 0.34 ± 0.07 % injected dose per organ
- ^111In biodistribution, Liver [3, 17]: 3.35 ± 0.10 % injected dose per gram
- ^111In biodistribution, Lung [3, 17]: 1.94 ± 0.43 % injected dose per gram
- ^111In biodistribution, Muscle [3, 17]: 0.27 ± 0.02 % injected dose per gram
- ^111In biodistribution, Sm. Intestine [3, 17]: 0.61 ± 0.04 % injected dose per organ
- ^111In biodistribution, Spleen [3, 17]: 1.19 ± 0.16 % injected dose per gram
- ^111In biodistribution, Blood [3, 18]: 2.91 ± 0.53 % injected dose per gram
- ^111In biodistribution, Bone [3, 18]: 0.65 ± 0.03 % injected dose per gram
- ^111In biodistribution, Brain [3, 18]: 0.11 ± 0.02 % injected dose per gram
- ^111In biodistribution, Heart [3, 18]: 0.93 ± 0.09 % injected dose per gram
- ^111In biodistribution, Kidney L [3, 18]: 4.75 ± 0.45 % injected dose per gram
- ^111In biodistribution, Lg. intestine [3, 18]: 0.56 ± 0.14 % injected dose per organ
- ^111In biodistribution, Liver [3, 18]: 4.68 ± 1.11 % injected dose per gram
- ^111In biodistribution, Muscle [3, 18]: 0.29 ± 0.05 % injected dose per gram
- ^111In biodistribution, Sm. Intestine [3, 18]: 1.04 ± 0.21 % injected dose per organ
- ^111In biodistribution, Spleen [3, 18]: 1.89 ± 0.17 % injected dose per gram
SMILES: O=C(CCCC(=O)Nc1cnccc1-c1nnc(-c2ccncc2NC(=O)CCCC(=O)NCCOCCOCCOCCOCCOCCOCCOCCOCCOCCO)nn1)NCCOCCOCCOCCOCCOCCOCCOCCOCCOCCO [Compound 2.10, N^1,N^1′-(4,4′-(1,2,4,5-Tetrazine-3,6-diyl)bis(pyridine-4,3-diyl))bis(N^5-(29-hydroxy-3,6,9,12,15,18,21,24,27-nonaoxanonacosyl)glutaramide)]
- release (%) [1, 6]: 45.2%
- release (%) [1, 7]: 50.0%
- release (%) [1, 8]: 50.0%
- release (%) [1, 10]: 52.2%
- release (%) [1, 11]: 53.4%
- release (%) [1, 15]: 57.9%
- release (%) ([1]; Label release from TCO derivative 1.8 on CC49, ^111In, PBS): 79.9%
- release (%) ([1]; Label release from TCO derivative 1.8 on cetuximab, ^111In, PBS): 84.9%
- release (%) ([1]; Label release from TCO derivative 1.8 on girentuximab, ^111In, PBS): 83.6%
- release (%) ([1]; Label release from TCO derivative 1.8 on rituximab, ^111In, PBS): 82.5%
- release (%) [1, 13]: 82.4, 82.4^a %
- release (%) [1, 14]: 82.4, 82.4^a %
- release (%) [1, 16]: 81.2%

SMILES: CC(=O)N[C@H]1C(OCCOCCOCCn2cc(COCCC(=O)NCCCCC(NC(=O)CCOCc3cn(CCOCCOCCOC4O[C@H](CO)[C@H](O)[C@H](O)[C@H]4NC(C)=O)nn3)C(=O)NCc3ccc(-c4nncnn4)cc3)nn2)O[C@H](CO)[C@H](O)[C@@H]1O (some centres unmarked) [Compound 2.11, Tetrazine-bis-GalNAc]
- release (%) [1, 14]: 67.2%

SMILES: Cc1nnc(C)nn1 [Compound 2.13, reference compound]
- release (%) [1, 6]: 53.6%
- release (%) [1, 7]: 66.3%
- release (%) [1, 8]: 72.3%
- release (%) [1, 9]: 84.4%
- release (%) [1, 12]: 62.9^a %
- release (%) ([1]; Label release from TCO derivative 1.4 on trastuzumab, ^177Lu, PBS): 69.5%
- release (%) [1, 14]: 71.4%
- release (%) [1, 16]: 88.9%

SMILES: c1ccc(-c2nnc(-c3ccccn3)nn2)nc1 [Compound 2.14, reference compound]
- release (%) [1, 14]: 51.5%

SMILES: NCc1ccc(-c2nncnn2)cc1 [Compound 2.16, reference compound]
- release (%) [1, 14]: 64.5%

SMILES: Cc1nnc(-c2ncccn2)nn1 [Compound 2.19, reference compound]
- release (%) [1, 14]: 69.1%

SMILES: Cc1nnc(-c2nccc(CNC(=O)CCCC(=O)NC(CO)CO)n2)nn1 [Compound 2.20]
- release (%) [1, 14]: 67.2%
